The supplement of paper PMC11061612

Columns and labels:
Assay in all cases: combination Emax (second highest fraction inhibited in the dose matrix, 72 h); higher = more inhibition; extreme values may be limits of the assay
[1] = test system: HuCCT1 (Biliary Tract Carcinoma)
Method in brief: (§1)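 After 24 hours at 37°C and 5% CO2 in 1536-well plates, cells in DMEM/F12 or RPMI plus 10% FBS received two-drug dose matrices for 72 hours. Viability came from CellTiter-Glo 2.0 luminescence and was scaled as inhibition, anchored at 0 by vehicle wells and at 1 by blank wells. Combination Emax is taken as the second-highest inhibition in the matrix, and Bliss excess as the observed combination effect less EA + EB − EA·EB, with EA and EB the single-agent effects.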

[2] = test system: BE2-M17 (Neuroblastoma)
Method in brief: as §1

[3] = test system: YAPC (Pancreatic Carcinoma)
Method in brief: as §1

[4] = test system: A673 (Ewing's Sarcoma)
Method in brief: as §1

[5] = test system: BE-13 (T-Lymphoblastic Leukemia)
Method in brief: as §1

[6] = test system: OE21 (Esophageal Squamous Cell Carcinoma)
Method in brief: as §1

[7] = test system: OVCAR-5 (Ovarian Carcinoma)
Method in brief: as §1

[8] = test system: FTC-133 (Thyroid Gland Carcinoma)
Method in brief: as §1

[9] = test system: NUGC-4 (Gastric Carcinoma)
Method in brief: as §1

[10] = test system: LOXIMVI (Melanoma)
Method in brief: as §1

[11] = test system: SW1710 (Bladder Carcinoma)
Method in brief: as §1

[12] = test system: HuH-7 (Hepatocellular Carcinoma)
Method in brief: as §1

[13] = test system: EW-11 (Ewing's Sarcoma)
Method in brief: as §1

[14] = test system: GAMG (Glioblastoma)
Method in brief: as §1

[15] = test system: NCI-H524 (Small Cell Lung Carcinoma)
Method in brief: as §1

[16] = test system: ESS-1 (Other Solid Carcinomas)
Method in brief: as §1

[17] = test system: CAL-72 (Osteosarcoma)
Method in brief: as §1

[18] = test system: LNZTA3WT4 (Low Grade Glioma)
Method in brief: as §1

[19] = test system: NCI-H209 (Small Cell Lung Carcinoma)
Method in brief: as §1

[20] = test system: SAS (Oral Cavity Carcinoma)
Method in brief: as §1

Structure (SMILES) | combination Emax [1] | combination Emax [2] | combination Emax [3] | combination Emax [4] | combination Emax [5] | combination Emax [6] | combination Emax [7] | combination Emax [8] | combination Emax [9] | combination Emax [10] | combination Emax [11] | combination Emax [12] | combination Emax [13] | combination Emax [14] | combination Emax [15] | combination Emax [16] | combination Emax [17] | combination Emax [18] | combination Emax [19] | combination Emax [20]
Cc1cc2ncnn2cc1Nc1ncc2c(n1)n(C1CCOCC1)c(=O)n2C [AZD7648] + CCN(CCO)CCCOc1ccc2c(Nc3cc(CC(=O)Nc4cccc(F)c4)[nH]n3)ncnc2c1 [AZD2811] (first compound max 10 µM, 7x7, partner max 1 µM) | 0.406 | 0.379 | 0.271 | 0.765 | 0.764 | 0.492 | 0.262 | 0.354 | 0.281 | 0.449 | 0.202 | 0.23 | 0.507 | 0.514 | 0.985 | 0.665 | 0.436 | 0.266 | 0.596 | 0.255
CN(CCO)CC[C@H](CSc1ccccc1)Nc1ccc(S(=O)(=O)NC(=O)c2ccc(N3CCC([C@@H](O)c4ccccc4-c4ccc(Cl)cc4)CC3)cc2)cc1S(=O)(=O)C(F)(F)F [AZD4320] + CC(=O)O[C@H]1C(=O)[C@@]2(C)[C@H]([C@H](OC(=O)c3ccccc3)[C@]3(O)C[C@H](OC(=O)[C@H](O)[C@@H](NC(=O)c4ccccc4)c4ccccc4)C(C)=C1C3(C)C)[C@]1(OC(C)=O)CO[C@@H]1C[C@@H]2O [Paclitaxel] (first compound max 1 µM, 7x7, partner max 3 µM) | 0.671 | – | 0.395 | 1 | 1 | – | 0.973 | – | – | 0.955 | 0.98 | – | 0.927 | 1 | 1 | 1 | – | 0.967 | – | 0.971
C[C@@H](c1ccc2nccn2c1)n1nnc2ncc(-c3cnn(C)c3)nc21 [Savolitinib] + Cc1c2c(nn1C)CSCc1cc(n(C)n1)CSc1cc(c3ccccc3c1)OCCCc1c(C(=O)O)n(C)c3c-2c(Cl)ccc13 [AZD5991] (first compound max 1 µM, 7x7, partner max 1 µM) | 0.117 | 0.129 | 0.11 | 0.302 | 0.383 | 0.355 | 0.137 | 0.176 | 0.221 | 0.228 | 0.105 | 0.207 | 0.491 | 0.167 | 0.351 | 0.16 | 0.189 | 0.222 | 0.323 | 0.151
CN(CCO)CC[C@H](CSc1ccccc1)Nc1ccc(S(=O)(=O)NC(=O)c2ccc(N3CCC([C@@H](O)c4ccccc4-c4ccc(Cl)cc4)CC3)cc2)cc1S(=O)(=O)C(F)(F)F [AZD4320] + Cc1cc2ncnn2cc1Nc1ncc2c(n1)n(C1CCOCC1)c(=O)n2C [AZD7648] (first compound max 1 µM, 7x7, partner max 10 µM) | 0.26 | 0.369 | 0.103 | 0.937 | 0.981 | 0.17 | 0.17 | 0.491 | 0.329 | 0.343 | 0.131 | 0.279 | 0.829 | 0.286 | 0.822 | 0.502 | 0.382 | 0.132 | 1 | 0.118
Cc1cc2ncnn2cc1Nc1ncc2c(n1)n(C1CCOCC1)c(=O)n2C [AZD7648] + CN(C)CCCOc1ccc(-c2ccc3ncc4c(c3c2)n(C2CCOCC2)c(=O)n4C)cn1 [AZD0156] (first compound max 10 µM, 7x7, partner max 1 µM) | 0.389 | 0.283 | 0.209 | 0.336 | 0.323 | 0.554 | 0.287 | 0.241 | 0.216 | 0.478 | 0.217 | 0.201 | 0.549 | 0.402 | 0.312 | 0.481 | 0.399 | 0.276 | 0.237 | 0.307
